Tests used:
SIK2 [1] = molecular target: T1, SIK2 (Homo sapiens, UniProt Q9H0K1); experiment: SIK2 Enzymatic Assay Version 1 (ADP Glo); format: biochemical; conditions: enzyme 0.6 nM, 160 μM ATP and 140 μM HDAC5tide (each 2× final concentration); 30 minutes pre-incubation, 4 hours; ADPGlo luminescence; read-out: SIK2 ADP Glo IC50 (μM) (Test Example 1)
Method in brief: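 Kinase activity read as ADP production by ADP-Glo luminescence, all steps at room temperature. Compound and SIK2 (0.6 nM, a 2× concentration) were preincubated 30 min; ATP-only wells lacking peptide were the negative control; depletion 40 min, detection ≥30 min.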

SIK2 [2] = molecular target: T1, SIK2; experiment: SIK2 Enzymatic Assay High Version 2 (High ATP); format: biochemical
Method in brief: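 At room temperature, enzyme (6 nM, 2× final) was preincubated with compound for 30 min, then 6 mM ATP and 400 μM HDAC5tide (both 2× final) were added for 2 h. ADP formed was measured by ADP-Glo Max (2 h reagent, 1 h detection) using luminescence.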

T1 sequence (Q9H0K1 whole entry, species assumed): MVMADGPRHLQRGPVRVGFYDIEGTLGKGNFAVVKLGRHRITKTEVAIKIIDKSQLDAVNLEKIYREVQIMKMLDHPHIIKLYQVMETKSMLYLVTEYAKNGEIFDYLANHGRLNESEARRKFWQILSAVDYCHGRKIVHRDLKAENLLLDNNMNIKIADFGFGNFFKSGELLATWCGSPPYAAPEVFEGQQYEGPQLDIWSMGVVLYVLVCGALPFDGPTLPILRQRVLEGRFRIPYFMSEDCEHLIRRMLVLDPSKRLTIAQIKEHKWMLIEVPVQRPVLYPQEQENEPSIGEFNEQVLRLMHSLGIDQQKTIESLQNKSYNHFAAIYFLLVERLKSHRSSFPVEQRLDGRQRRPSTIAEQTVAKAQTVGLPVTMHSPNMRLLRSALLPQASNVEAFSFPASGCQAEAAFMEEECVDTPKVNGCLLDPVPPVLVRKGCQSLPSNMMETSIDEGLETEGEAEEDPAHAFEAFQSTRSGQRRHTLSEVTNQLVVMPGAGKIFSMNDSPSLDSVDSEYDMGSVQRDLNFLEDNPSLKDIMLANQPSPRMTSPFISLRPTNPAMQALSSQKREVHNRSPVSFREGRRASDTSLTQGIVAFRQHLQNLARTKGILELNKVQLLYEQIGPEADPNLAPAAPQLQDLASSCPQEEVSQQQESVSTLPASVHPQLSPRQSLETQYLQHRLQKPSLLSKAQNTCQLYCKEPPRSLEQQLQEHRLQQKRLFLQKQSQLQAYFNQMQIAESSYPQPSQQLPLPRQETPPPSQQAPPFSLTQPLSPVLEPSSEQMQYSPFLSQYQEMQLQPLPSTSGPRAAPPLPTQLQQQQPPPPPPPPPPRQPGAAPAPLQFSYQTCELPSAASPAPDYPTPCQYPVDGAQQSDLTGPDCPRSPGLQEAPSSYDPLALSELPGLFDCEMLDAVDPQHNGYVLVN

CN1CC[C@@H](COc2ccc(C#N)cc2-c2ccn3nc(NC(=O)C4CC4)cc3c2)C1 [Example 100, N-[5-[5-cyano-2-[[(3R)-1-methylpyrrolidin-3-yl]methoxy]phenyl]pyrazolo[1,5-a]pyridin-2-yl]cyclopropanecarboxamide]
IC50 (SIK2 [1]): 0.00573 µM | IC50 (SIK2 [2]): 105 nM

N#CCN1CC[C@H](Oc2cnc(C#N)cc2-c2ccn3nc(NC(=O)C4CC4)cc3c2)C1 [Example 114, (S)—N-[5-[2-cyano-5-[(3S)-1-(cyanomethyl)pyrrolidin-3-yl]oxy-4-pyridyl]pyrazolo[1,5-a]pyridin-2-yl]cyclopropanecarboxamide]
IC50 (SIK2 [1]): 0.000337 µM | IC50 (SIK2 [2]): 6.58 nM

N#Cc1cc(-c2ccn3nc(NC(=O)C4CC4)cc3c2)c(OCC2CNC(=O)C2)cn1 (racemic) [Example 33, rac-N-(5-(2-cyano-5-((5-oxopyrrolidin-3-yl)methoxy)pyridin-4-yl)pyrazolo[1,5-a]pyridin-2-yl)cyclopropanecarboxamide]
IC50 (SIK2 [1]): 0.00416 µM | IC50 (SIK2 [2]): 93.1 nM

CC(=O)N1CCC(COc2cnc(C#N)cc2-c2ccn3nc(NC(=O)C4CC4)cc3c2)CC1 [Example 60, N-[5-[5-[(1-acetyl-4-piperidyl)methoxy]-2-cyano-4-pyridyl]pyrazolo[1,5-a]pyridin-2-yl]cyclopropanecarboxamide]
IC50 (SIK2 [1]): 0.00492 µM | IC50 (SIK2 [2]): 98.6 nM

Cc1cc(-c2ccn3nc(NC(=O)C4CC4)cc3c2)c(O[C@H]2CCN(C)C2)cn1 [Example 139, N-[5-[2-methyl-5-[(3S)-1-methylpyrrolidin-3-yl]oxy-4-pyridyl]pyrazolo[1,5-a]pyridin-2-yl]cyclopropanecarboxamide]
IC50 (SIK2 [1]): 0.0033 µM | IC50 (SIK2 [2]): 72.9 nM

Cc1cc(-c2ccn3nc(NC(=O)C4CC4)cc3c2)c(OCC2(N)COC2)cn1 [Example 144, N-[5-[5-[(3-aminooxetan-3-yl)methoxy]-2-methyl-4-pyridyl]pyrazolo[1,5-a]pyridin-2-yl]cyclopropanecarboxamide]
IC50 (SIK2 [1]): 0.00212 µM | IC50 (SIK2 [2]): 36.4 nM

Cc1cc(Nc2cc3cc(-c4cc(OC(C)C)ncc4OCC(C)(C)C#N)ccn3n2)nc(C)n1 [Example 663, 3-[[4-[2-[(2,6-dimethylpyrimidin-4-yl)amino]pyrazolo[1,5-a]pyridin-5-yl]-6-isopropoxy-3-pyridyl]oxy]-2,2-dimethyl-propanenitrile]
IC50 (SIK2 [1]): 0.000151 µM | IC50 (SIK2 [2]): < 0.838 nM

N#Cc1cc(-c2ccn3nc(NC(=O)C4CC4)cc3c2)c(OC[C@H]2C[C@@H](NC3CC3)C2)cn1 [Example 597, N-[5-[2-cyano-5-[[3-(cyclopropylamino)cyclobutyl]methoxy]-4-pyridyl]pyrazolo[1,5-a]pyridin-2-yl]cyclopropanecarboxamide]
IC50 (SIK2 [1]): 0.00192 µM | IC50 (SIK2 [2]): 29.9 nM

N#Cc1cc(-c2ccn3nc(NC(=O)C4CC4)cc3c2)c(OC[C@H]2CCCNC2)cn1 [Example 593, N-[5-[2-cyano-5-[[(3S)-3-piperidyl]methoxy]-4-pyridyl]pyrazolo[1,5-a]pyridin-2-yl]cyclopropanecarboxamide]
IC50 (SIK2 [1]): 0.00242 µM | IC50 (SIK2 [2]): 30.7 nM

Cc1cc(-c2ccn3nc(NC(=O)C4CC4)cc3c2)c(OC[C@@H]2CNC(C)(C)CO2)cn1 [Example 167, N-[5-[5-[[(2S)-5,5-dimethylmorpholin-2-yl]methoxy]-2-methyl-4-pyridyl]pyrazolo[1,5-a]pyridin-2-yl]cyclopropanecarboxamide]
IC50 (SIK2 [1]): 0.00059 µM | IC50 (SIK2 [2]): 8.8 nM

N#Cc1cc(-c2ccn3nc(NC(=O)C4CC4)cc3c2)c(OCC2CCNC2)cn1 (stereo in doubt) [Example 45, N-[5-[2-Cyano-5-[[(3R)-pyrrolidin-3-yl]methoxy]-4-pyridyl]pyrazolo[1,5-a]pyridin-2-yl]cyclopropanecarboxamide]
IC50 (SIK2 [1]): 0.00116 µM | IC50 (SIK2 [2]): 23.4 nM

Cc1cc(-c2ccn3nc(NC(=O)C4CC4)cc3c2)c(O[C@@H]2CC[C@H](O)C2)cn1 (single isomer, unassigned) [Example 180, cis-N-(5-(5-(((1*R,3*S)-3-hydroxycyclopentyl)oxy)-2-methylpyridin-4-yl)pyrazolo[1,5-a]pyridin-2-yl)cyclopropanecarboxamide]
IC50 (SIK2 [1]): 0.00358 µM | IC50 (SIK2 [2]): 60.9 nM

CC1(C)CNC[C@@H](COc2ccc(C#N)cc2-c2ccn3nc(NC(=O)C4CC4)cc3c2)O1 [Example 104, N-[5-[5-cyano-2-[[(2S)-6,6-dimethylmorpholin-2-yl]methoxy]phenyl]pyrazolo[1,5-a]pyridin-2-yl]cyclopropanecarboxamide]
IC50 (SIK2 [1]): 0.00588 µM | IC50 (SIK2 [2]): 31 nM

CC#Cc1cc(-c2ccn3nc(NC(=O)C4CC4)cc3c2)c(O[C@H]2CC[C@H](O)CC2)cn1 [Example 185, trans-N-[5-[5-(4-hydroxycyclohexoxy)-2-prop-1-ynyl-4-pyridyl]pyrazolo[1,5-a]pyridin-2-yl]cyclopropanecarboxamide]
IC50 (SIK2 [1]): 0.000366 µM | IC50 (SIK2 [2]): < 0.838 nM

CC(C)(O)CNc1cnc(C#N)cc1-c1ccn2nc(NC(=O)C3CC3)cc2c1 [Example 81, N-[5-[2-cyano-5-[(2-hydroxy-2-methyl-propyl)amino]-4-pyridyl]pyrazolo[1,5-a]pyridin-2-yl]cyclopropanecarboxamide]
IC50 (SIK2 [1]): 0.0154 µM | IC50 (SIK2 [2]): 278 nM

C[C@@](O)(COc1cnc(C#N)cc1-c1ccn2nc(NC(=O)C3CC3)cc2c1)C(F)(F)F (single isomer, unassigned) [Example 49, (*R)—N-(5-(2-Cyano-5-(3,3,3-trifluoro-2-hydroxy-2-methylpropoxy)pyridin-4-yl)pyrazolo[1,5-a]pyridin-2-yl)cyclopropanecarboxamide]
IC50 (SIK2 [1]): 0.000957 µM | IC50 (SIK2 [2]): 25.2 nM

N#Cc1cc(-c2ccn3nc(NC(=O)C4CC4)cc3c2)c(OC[C@@H](O)C(F)(F)F)cn1 [Example 96, N-[5-[2-cyano-5-[(2R)-3,3,3-trifluoro-2-hydroxy-propoxy]-4-pyridyl]pyrazolo[1,5-a]pyridin-2-yl]cyclopropanecarboxamide]
IC50 (SIK2 [1]): 0.000912 µM | IC50 (SIK2 [2]): 16 nM

Cc1cc(-c2ccn3nc(Nc4ccn(C)n4)cc3c2)c(O[C@H]2CC[C@@H](O)CC2)cn1 [Example 184, cis-4-[[6-methyl-4-[2-[(1-methylpyrazol-3-yl)amino]pyrazolo[1,5-a]pyridin-5-yl]-3-pyridyl]oxy]cyclohexanol]
IC50 (SIK2 [1]): 0.00175 µM | IC50 (SIK2 [2]): 14 nM

CC(=O)N1CCC(Oc2cnc(C#N)cc2-c2ccn3nc(NC(=O)C4CC4)cc3c2)C1 (single isomer, unassigned) [Example 57, (*S)—N-(5-(5-((1-Acetylpyrrolidin-3-yl)oxy)-2-cyanopyridin-4-yl)pyrazolo[1,5-a]pyridin-2-yl)cyclopropanecarboxamide]
IC50 (SIK2 [1]): 0.0103 µM | IC50 (SIK2 [2]): 264 nM

Cc1cc(-c2ccn3nc(Nc4cc(C)nc(C)n4)cc3c2)c(O[C@H]2CC[C@H](O)CC2)nn1 [Example 488, 4-[4-[2-[(2,6-dimethylpyrimidin-4-yl)amino]pyrazolo[1,5-a]pyridin-5-yl]-6-methyl-pyridazin-3-yl]oxycyclohexanol]
IC50 (SIK2 [1]): 0.00294 µM | IC50 (SIK2 [2]): 116 nM

CN1CC[C@@H](Oc2cnc(C#N)cc2-c2ccn3nc(NC(=O)C4CC4)cc3c2)C(F)(F)C1 [Example 11, N-[5-[2-cyano-5-[[(4R)-3,3-difluoro-1-methyl-4-piperidyl]oxy]-4-pyridyl]pyrazolo[1,5-a]pyridin-2-yl]cyclopropanecarboxamide]
IC50 (SIK2 [1]): 0.0014 µM | IC50 (SIK2 [2]): 31.6 nM

N#Cc1cc(-c2ccn3nc(NC(=O)C4CC4)cc3c2)c(O[C@H]2CCN(C3CC3)C2)cn1 [Example 7, N-[5-[2-cyano-5-[(3S)-1-cyclopropylpyrrolidin-3-yl]oxy-4-pyridyl]pyrazolo[1,5-a]pyridin-2-yl]cyclopropanecarboxamide]
IC50 (SIK2 [1]): 0.000725 µM | IC50 (SIK2 [2]): 29.9 nM

Cc1cc(-c2ccn3nc(NC(=O)C4CC4)cc3c2)c(O[C@H]2C[C@H]3COC[C@@H](C2)N3)cn1 [Example 136, endo-N-(5-(5-(((1R,5S,7s)-3-oxa-9-azabicyclo[3.3.1]nonan-7-yl)oxy)-2-methylpyridin-4-yl)pyrazolo[1,5-a]pyridin-2-yl)cyclopropanecarboxamide]
IC50 (SIK2 [1]): 0.000208 µM | IC50 (SIK2 [2]): < 0.838 nM

CN1CCC(Oc2cnc(C#N)cc2-c2ccn3nc(NC(=O)C4CC4)cc3c2)C1 (single isomer, unassigned) [Example 58, (*R)—N-(5-(2-cyano-5-((1-methylpyrrolidin-3-yl)oxy)pyridin-4-yl)pyrazolo[1,5-a]pyridin-2-yl)cyclopropanecarboxamide]
IC50 (SIK2 [1]): 0.00431 µM | IC50 (SIK2 [2]): 99.9 nM

CN1CC[C@@H](COc2cnccc2-c2ccn3nc(NC(=O)C4CC4)cc3c2)C1 [Example 489, N-[5-[3-[[(3R)-1-methylpyrrolidin-3-yl]methoxy]-4-pyridyl]pyrazolo[1,5-a]pyridin-2-yl]cyclopropanecarboxamide]
IC50 (SIK2 [1]): 0.000791 µM | IC50 (SIK2 [2]): 10.3 nM

Cc1cc(-c2ccn3nc(NC(=O)C4CC4)cc3c2)c(O[C@@H]2CCN(C)C2)cn1 [Example 137, N-[5-[2-methyl-5-[(3R)-1-methylpyrrolidin-3-yl]oxy-4-pyridyl]pyrazolo[1,5-a]pyridin-2-yl]cyclopropanecarboxamide]
IC50 (SIK2 [1]): 0.00334 µM | IC50 (SIK2 [2]): 70 nM

Cc1cc(-c2ccn3nc(NC(=O)C4CC4)cc3c2)c(OCC2(N)CC(F)(F)C2)cn1 [Example 145, N-[5-[5-[(1-amino-3,3-difluoro-cyclobutyl)methoxy]-2-methyl-4-pyridyl]pyrazolo[1,5-a]pyridin-2-yl]cyclopropanecarboxamide]
IC50 (SIK2 [1]): 0.000642 µM | IC50 (SIK2 [2]): 16.4 nM

N#Cc1cc(-c2ccn3nc(NC(=O)C4CC4)cc3c2)c(N2CC(O)C2)cn1 [Example 70, N-[5-[2-cyano-5-(3-hydroxyazetidin-1-yl)-4-pyridyl]pyrazolo[1,5-a]pyridin-2-yl]cyclopropanecarboxamide]
IC50 (SIK2 [1]): 0.0208 µM | IC50 (SIK2 [2]): 409 nM

From patent publication US20240158392A1 (Janssen Biotech, Inc., priority 2021, published 2024)
